This assay addresses T1, Beta-glucuronidase (Bos taurus, UniProt A3KMY8).
T1 sequence (A3KMY8 whole entry): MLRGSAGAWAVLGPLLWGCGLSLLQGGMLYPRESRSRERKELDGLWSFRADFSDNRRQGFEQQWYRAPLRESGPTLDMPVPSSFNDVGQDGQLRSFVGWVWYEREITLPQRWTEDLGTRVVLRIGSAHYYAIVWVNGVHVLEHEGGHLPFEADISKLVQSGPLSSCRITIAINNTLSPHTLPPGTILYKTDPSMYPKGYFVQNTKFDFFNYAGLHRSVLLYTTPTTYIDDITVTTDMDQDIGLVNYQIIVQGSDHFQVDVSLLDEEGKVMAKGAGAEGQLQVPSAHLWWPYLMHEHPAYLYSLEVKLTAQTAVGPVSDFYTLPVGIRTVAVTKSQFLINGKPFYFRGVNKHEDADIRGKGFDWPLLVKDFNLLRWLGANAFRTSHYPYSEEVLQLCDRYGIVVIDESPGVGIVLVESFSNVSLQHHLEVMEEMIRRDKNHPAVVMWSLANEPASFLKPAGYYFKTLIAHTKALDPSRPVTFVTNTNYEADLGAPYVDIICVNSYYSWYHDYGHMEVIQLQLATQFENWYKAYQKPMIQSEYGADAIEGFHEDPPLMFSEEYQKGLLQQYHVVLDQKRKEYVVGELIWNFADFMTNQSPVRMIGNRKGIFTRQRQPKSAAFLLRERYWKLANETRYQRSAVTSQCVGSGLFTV
As to the kind of experiment: Beta-glucuronidase Inhibition Assay. The protocol: The total reaction volume was 250 µL. […] The reaction mixture contained 185 µL of 0.1 M acetate buffer, 5 µL of test compound solution, 10 µL of enzyme solution was incubated at 37 °C for 30 min. […] All assays were run in triplicate.

Molecules are shown by their SMILES.

The term IC50 denotes the concentration that inhibits the measured activity by half. Read a high IC50 as weaker potency in that assay.

`Oc1cccc(-c2nc3c(Cl)cc(Cl)cc3[nH]2)c1` [3-(4,6-dichloro-1H-benzo[d]imidazol-2-yl)phenol (2)] showed an IC50 of 28.4 µM.
The same measure for `Clc1cc(Cl)c2nc(-c3ccccn3)[nH]c2c1` [4,6-dichloro-2-(pyridin-2-yl)-1H-benzo[d]imidazole (19)]: 86.1 µM.
With `Oc1ccc(-c2nc3c(Cl)cc(Cl)cc3[nH]2)cc1O` [4-(4,6-dichloro-1H-benzo[d]imidazol-2-yl)benzene-1,2-diol (5)], inhibition was half-maximal at 46.1 µM (IC50).
As to `Oc1cccc(-c2nc3c(Cl)cc(Cl)cc3[nH]2)c1O` [3-(4,6-dichloro-1H-benzo[d]imidazol-2-yl)benzene-1,2-diol (4)], the IC50 was found to be 60.5 µM.
In turn, `Clc1ccc(-c2nc3c(Cl)cc(Cl)cc3[nH]2)cc1` [4,6-Dichloro-2-(4-chlorophenyl)-1H-benzo[d]imidazole (12)] yielded an IC50 of 36.1 µM.
`COc1ccc(-c2nc3c(Cl)cc(Cl)cc3[nH]2)cc1O` [5-(4,6-dichloro-1H-benzo[d]imidazol-2-yl)-2-methoxyphenol (9)] showed an IC50 of 86.3 µM.
In turn, `Oc1ccc(-c2nc3c(Cl)cc(Cl)cc3[nH]2)c(O)c1` [4-(4,6-dichloro-1H-benzo[d]imidazol-2-yl)benzene-1,3-diol (6)] came in with an IC50 of 14.2 µM.
`Oc1ccccc1-c1nc2cc(Cl)cc(Cl)c2[nH]1` [2-(4,6-dichloro-1H-benzo[d]imidazol-2-yl)phenol (1)]: the IC50 was 4.48 µM.
With `Oc1ccc(-c2nc3c(Cl)cc(Cl)cc3[nH]2)cc1` [4-(4,6-dichloro-1H-benzo[d]imidazol-2-yl)phenol (3)], inhibition was half-maximal at 14.2 µM (IC50).
The same measure for `Oc1ccc(O)c(-c2nc3c(Cl)cc(Cl)cc3[nH]2)c1` [2-(4,6-dichloro-1H-benzo[d]imidazol-2-yl)benzene-1,4-diol (7)]: 11.5 µM; for `COc1ccc(O)c(-c2nc3c(Cl)cc(Cl)cc3[nH]2)c1` [2-(4,6-dichloro-1H-benzo[d]imidazol-2-yl)-4-methoxyphenol (8)]: 15.5 µM.
